# Results from patent publication US9512115B2, “Inhibitors” (PROBIODRUG AG, priority 2013, dated 2016).
# Experiment: Pharmacokinetic parameters in mice after oral administration (plasma, brain, CSF)
# Type: in vivo, mice (strain CD-1)
# Conditions: brain tissue vs plasma; CD-1 mice, 30 mg/kg orally
# Description: The mice were anesthetized with Isoflurane. Approximate 200 μL of each blood sample were collected via cardiac puncture for terminal bleeding into K2EDTA tubes. […] CSF collection: The animals were euthanized with pure CO2 inhalation. A mid line incision was made on the neck. The muscle under the skin was cut to expose the cisterna magna. The cisterna magna was penetrated with the sharp end of a capillary and CSF was collected via capillarity. […] A mid-line incision was made in the animal scalp. The brain was removed and rinsed with cold saline. Brain was placed into a screw-top tube and weighed. […] The brain concentration was corrected with a dilution factor of 4 as following: Brain concentration=brain homogenate conc.×4, assuming 1 g wet brain tissue equals to 1 ml. For plasma samples: […] For Brain samples: Brain tissue was homogenized for 2 min with 3 volumes (v/w) of PBS. […] For CSF samples: […] Tmax, T1/2, AUC and log BB values were calculated using conventional methods.
row,Structure (SMILES),logBB
1,"CC(F)(F)COc1ccc([C@H]2COC(=O)N2c2ccc3[nH]cnc3c2)c(F)c1 [compound 7, (S)-3-(1H-benzo[d]imidazol-5-yl)-4-(4-(2,2-difluoropropoxy)-2-fluorophenyl)oxazolidin-2-one]",−0.9439
2,"CC(F)(F)COc1c(F)cc([C@H]2COC(=O)N2c2ccc3[nH]cnc3c2)cc1F [compound 8, (S)-3-(1H-benzo[d]imidazol-5-yl)-4-(4-(2,2-difluoropropoxy)-3,5-difluorophenyl)oxazolidin-2-one]",−0.9993
3,"CC(F)(F)CCOc1ccc([C@H]2COC(=O)N2c2ccc3[nH]cnc3c2)cc1F [compound 10, (S)-3-(1H-benzo[d]imidazol-5-yl)-4-(4-(3,3-difluorobutoxy)-3-fluorophenyl)oxazolidin-2-one]",−1.1234
4,"CC(F)(F)COc1ccc([C@H]2COC(=O)N2c2ccc3[nH]cnc3c2)cc1F [compound 5, (S)-3-(1H-benzo[d]imidazol-5-yl)-4-(4-(2,2-difluoropropoxy)-3-fluorophenyl)oxazolidin-2-one]",−1.0928
5,"O=C1OC[C@H](c2ccc(N3CCC(F)(F)C3)c(F)c2F)N1c1ccc2[nH]cnc2c1 [compound 19, (S)-3-(1H-benzo[d]imidazol-5-yl)-4-(4-(3,3-difluoropyrrolidin-1-yl)-2,3-difluorophenyl)-oxazolidin-2-one]",−1.2208
6,"O=C1OC[C@H](c2ccc(N3CCC(F)(F)C3)cc2F)N1c1ccc2[nH]cnc2c1 [compound 18, (S)-3-(1H-benzo[d]imidazol-5-yl)-4-(4-(3,3-difluoropyrrolidin-1-yl)-2-fluorophenyl)-oxazolidin-2-one]",−1.2913
7,"O=C1OC[C@H](c2ccc(N3CCC(F)(F)C3)c(F)c2)N1c1ccc2[nH]cnc2c1 [compound 21, (S)-3-(1H-benzo[d]imidazol-5-yl)-4-(4-(3,3-difluoropyrrolidin-1-yl)-3-fluorophenyl) oxazolidin-2-one]",−1.208
8,"CC(F)(F)CCOc1ccc([C@H]2COC(=O)N2c2ccc3[nH]cnc3c2)c(F)c1F [compound 1, (S)-3-(1H-benzo[d]imidazol-5-yl)-4-(4-(3,3-difluorobutoxy)-2,3-difluorophenyl)-oxazolidin-2-one]",−0.9363
9,"CC(F)(F)CCOc1ccc([C@H]2COC(=O)N2c2ccc3[nH]cnc3c2)c(F)c1 [compound 3, (S)-3-(1H-benzo[d]imidazol-5-yl)-4-(4-(3,3-difluorobutoxy)-2-fluorophenyl)oxazolidin-2-one]",−1.0428

# Now from value to compound:
row,logBB,Structure (SMILES)
1,−1.0431,"CC(F)(F)COc1ccc([C@H]2COC(=O)N2c2ccc3[nH]cnc3c2)c(F)c1F [compound 6, (S)-3-(1H-benzo[d]imidazol-5-yl)-4-(4-(2,2-difluoropropoxy)-2,3-difluorophenyl)oxazolidin-2-one]"
2,−0.9451,"O=C1OC[C@H](c2ccc(OCCC(F)F)c(F)c2F)N1c1ccc2[nH]cnc2c1 [compound 11, (S)-3-(1H-benzo[d]imidazol-5-yl)-4-(4-(3,3-difluoropropoxy)-2,3-difluorophenyl)oxazolidin-2-one]"
3,−1.1821,"O=C1OC[C@H](c2ccc(OCCC(F)F)c(F)c2)N1c1ccc2[nH]cnc2c1 [compound 12, (S)-3-(1H-benzo[d]imidazol-5-yl)-4-(4-(3,3-difluoropropoxy)-3-fluorophenyl)oxazolidin-2-one]"
4,−1.1517,"O=C1OC[C@H](c2ccc(OCCC(F)F)cc2F)N1c1ccc2[nH]cnc2c1 [compound 2, (S)-3-(1H-benzo[d]imidazol-5-yl)-4-(4-(3,3-difluoropropoxy)-2-fluorophenyl)oxazolidin-2-one]"
